Reference: patent publication US20030082135A1, “Pathway of RANTES-mediated chemokine synthesis in astrocytes and methods of use therefor” (priority 2001, published 2003)
Entries after “also recorded” stand apart in the source; their conditions may differ. Like-named read-outs stand apart in the source and are kept apart here. One block for each molecule: values may come before it. Where no end group is shown, it is not given here.

Experiments:
[1] = test system: MEK, ERK1/2, p90RSK, p38, SAPK/JNK phosphorylation in astrocytes; experiment: Western blotting of phosphorylated MAP kinase pathway proteins in astrocyte lysates; type: cell-based, mouse; details: for effect on erk1/2 and RSK phosphorylation induced by H-89: 10-50 μM U0126 or 5 μM SB203580, 10 μM H-89 for 20 min
Method: SDS-PAGE and Western blotting. Astrocytes were treated for the indicated time with media or 100 ng/ml RANTES, eotaxin, or other materials as indicated. Cells (3×10^5 in Examples 1-3, or 2×10^4 in later Examples) were resuspended in 100 μl buffer (50 mM HEPES, pH 7.5, 150 mM NaCl, 2 mM EDTA, 2 mM EGTA, 1% Triton X-100, 50 mM Sodium fluoride, 5 mM Sodium pyrophosphate, 50 mM Sodium β-glycerophosphate, 1 mM Sodium Ortho-vanadate, 1 mM DTT, 1 mM PMSF, 10 μg/ml Leupeptin, and 10 μg/ml Aprotinin). Protein concentration of the whole cell extract was determined by BCA protein assay kit (Pierce, Rockford, Ill.). Samples (10 μg) were loaded and separated on a 10% SDS-polyacrylamide gel. After transfer to Hybond ECL nitrocellulose membrane (Amersham Pharmacia Biotech Inc, Piscataway, N.J.) or Zeta-probe blotting membranes (Bio-Rad, Richmond Calif.) blots were blocked overnight with 5% BSA at 4° C., and probed with the antibody indicated. Antibody against unphosphorylated or phosphorylated erk (Cell Signaling, Beverly, Mass.) was used at 1 μg/ml. Appropriate anti-immunoglobulin reagents were used to develop the blots by enhanced chemiluminescence (Amersham Pharmacia Biotech Inc, Piscataway, N.J.).
Little is known about the signaling mechanisms involved in astrocyte respones to chemokines. To examine components of the RANTES signal transduction pathway, phosphorylation of the MAP kinase kinase (MEK) and mitogen activated protein (MAP) kinases was examined. To minimize basal kinase activity, astrocytes were starved of serum for at least 3 h before treatment with chemokine. Whole cell lysates were separated by SDS-PAGE and examined by Western blot. Antibodies that specifically react with phosphorylated MEK or phosphorylated extracellular signal-related kinase (ERK) were used to detect the active kinases.

[2] = test system: primary neonatal mouse astrocyte cultures; experiment: RNase protection assay (RPA) for chemokine/cytokine transcripts in astrocyte cultures; type: cell-based; details: for expression of transcripts for MIP-1α: PKA inhibitors alone, 3 h; for expression of TNF-α, RANTES, KC, MIP-1α, MIP-2, and MCP-1 transcripts: BALB/cJ neonatal astrocytes, chemokine for 6 h
Method: Astrocyte isolation and culture. […] RNA isolation and RNase protection assay (RPA). […] RNase protection assays (RPA) for chemokine message were conducted with multi-probe templates according to the manufacture's protocol (RiboQuant assay kit, BD-PharMingen, San Diego, Calif.). Gels were scanned and radioactive bands quantitated using a phosphoimager (Molecular Dynamics, Sunnyvale, Calif.). Levels of uniformly expressed housekeeping genes large ribosomal subunit protein 32-3A (L32) or glyceraldehyde-3-phosphate dehydrogenase (GAPDH), were used for normalization. The value of each chemokine receptor band divided by the value of the indicated housekeeping gene band in the same sample yielded the relative intensity. Normalized receptor expression represents the ratio of the relative intensity following treatment with chemokine versus the relative intensity of medium alone. Treatment with pharmacological inhibitors. Astrocytes were washed and resuspended in serum-and insulin-free complete medium and starved overnight. Cells were treated at 37° C. for 1 h with 100 ng/ml Pertussis toxin (PTx) before addition of RANTES or IL-1. […] The cells were harvested after a 3 h incubation with RANTES; RNA was prepared and assayed by RPA.

murine KC promoter = experiment: KC promoter luciferase reporter in transfected astrocytes; type: cell-based, mouse; details: U0126 indicated amounts or 5 μM SB203580 plus 100 ng/ml RANTES, 24 h
Text: Plasmids, transient transfection, and luciferase activity assay. The KC reporter plasmid was constructed by using a luciferase reporter gene pGL-3 basic vector (Promega, Madison, Wis.) driven by mouse KC promoter (−2878/+43). Wild-type p90RSK expression (WT pKH3) and dominant negative p90RSK expression (ΔΔ RSK pKH3) plasmids were obtained from Dr. John Blenis, Harvard Medical School. Astrocytes were transiently transfected with Lipofectamine 2000 reagent (Life Technologies, Gaithersburg, Md.) according to the manufacturer's protocol. After 24 h, the cells were stimulated with RANTES in absence or presence of the indicated inhibitor, and luciferase activity was determined after an additional 24 h, by the procedure according to the manufacturer (Promega, Madison, Wis.). Relative luciferase activity was normalized for cell lysate protein concentration as determined by BCA protein assay kit (Pierce, Rockford, Ill.). The Relative Fold Induction is the relative intensity of the experimental sample divided by the relative intensity of the medium control.
To establish whether RANTES up-regulation of chemokine production is mediated by activation of promoter elements, primary astrocyte cultures were transiently transfected with a murine KC promoter-luciferase construct, and reporter activity was monitored after RANTES treatment.

PKA = PKA activity assay on lysates of treated astrocytes; type: cell-based, mouse
Method: PKA activity assay. PKA activity was determined using a commercially available kit (Calbiochem, San Diego, Calif.) according to manufacturer's recommendations. Primary mouse astrocytes were grown in 6-well plates and then stimulated as described and lysed in 100 μl buffer (same buffer used for Western blotting) for 30 min. Five μl of the lysates were incubated with 20 μl PKA reaction mixture at 30° C. for 30 min. The reaction was terminated by adding 10 μl stop solution and ^32P radioactivity was counted.

[3] = test system: intracellular cAMP in astrocytes; experiment: Intracellular cAMP in astrocytes (EIA); type: cell-based, mouse; details: 1 μM forskolin, 1 h
Method: FIG. 8 is a set of bar graphs showing that RANTES reduced intracellular cAMP accumulation in astrocytes. Panel A. Astrocytes were treated with the indicated doses of RANTES or TCA4 for 5 min. Intracellular cAMP was detected as described in Materials and Methods. Values represent the mean±S.E.M of triplicate experiments. Panel B. Kinetics of intracellular cAMP levels. Astrocytes were treated with 100 ng/ml RANTES for indicated times. Panel C. RANTES inhibited forskolin-induced intracellular cAMP accumulation. Astrocytes were pretreated with 1 μM forskolin for 1 h then stimulated with the indicated amount of RANTES for 5 min. Intracellular cAMP was determined by EIA. Values are presented as relative cAMP level and represent the mean±S.E.M. of triplicate experiments.
To further elucidate the RANTES-mediated signaling pathway in astrocytes, intracellular cAMP levels were evaluated following chemokine stimulation. Primary mouse astrocytes were incubated with the indicated dose of RANTES or the negative control chemokine, TCA4 for 5 min and monitored for cAMP levels. RANTES (100 ng/ml) decreased intracellular cAMP levels by 68% in a dose dependent fashion (FIG. 8A).

[4] = test system: CXCR4, CX3CR1, CCR1, CCR5 transcripts in astrocytes; experiment: RPA for chemokine receptor transcripts in astrocytes; type: cell-based, mouse
Method: RNA isolation and RNase protection assay (RPA). RNA was prepared as in Luo, Y., et al. 1999. J Immunol 163:3985. RNase protection assays (RPA) for chemokine message were conducted with multi-probe templates according to the manufacture's protocol (RiboQuant assay kit, BD-PharMingen, San Diego, Calif.). Gels were scanned and radioactive bands quantitated using a phosphoimager (Molecular Dynamics, Sunnyvale, Calif.). Levels of uniformly expressed housekeeping genes large ribosomal subunit protein 32-3A (L32) or glyceraldehyde-3-phosphate dehydrogenase (GAPDH), were used for normalization. The value of each chemokine receptor band divided by the value of the indicated housekeeping gene band in the same sample yielded the relative intensity. Normalized receptor expression represents the ratio of the relative intensity following treatment with chemokine versus the relative intensity of medium alone.
Treatment with the RANTES-related chemokines RANTES or eotaxin, or with TNF-α also found to down-regulate expression of CX3CR1 transcripts. In addition, CXCR4 mRNA levels were decreased, while the levels of CCR1 transcripts were elevated. In contrast, little or no regulation of CCR5 was noted. The pooled results of 3-4 experiments indicate eotaxin caused an average 60% decrease in CXCR4 (P less than 0.01) and a 70% decrease in CX3CR1 mRNA (P less than 0.02) (FIG. 8.B). The effects of RANTES stimulation were similar with an average 70 and 90% reduction in CXCR4 and CX3CR1 transcripts, respectively (P less than 0.01).

Molecule: CN(C)CCCn1cc(C2=C(c3c[nH]c4ccccc34)C(=O)NC2=O)c2ccccc21 [GF109203, reference compound]
MEK phosphorylation ([1]; protein kinase C inhibitor control, 20 min): failed to stimulate

effect on RANTES-induced chemokine message ([2]; U0126 50 μM, genistein 100 μM, wortmannin 1 μM, added 30 min prior to chemokine, 3 h RANTES): block chemokine message
Molecule: O=c1c(-c2ccc(O)cc2)coc2cc(O)cc(O)c12 [Genistein, genistein, reference compound]

expression of transcripts for MIP-1α [2]: induced
Molecule: O=S(=O)(NCCNC/C=C/c1ccc(Br)cc1)c1cccc2cnccc12 [H-89, reference compound]
MEK, erk1/2 and RSK phosphorylation ([1]; indicated doses, 20 min, no RANTES): induced

Molecule: Nc1ncnc2c1nc(Br)n2C1OC2COP(O)(=S)OC2C1O (stereo not drawn) [Rp-8-bromo-cAMP, reference compound]
expression of transcripts for MIP-1α [2]: induced

Molecule: C[S+]([O-])c1ccc(-c2nc(-c3ccncc3)c(-c3ccc(F)cc3)[nH]2)cc1 (stereo not drawn) [SB203580, reference compound]
effect on erk1/2 and RSK phosphorylation induced by H-89 [1]: fail to block | effect on RANTES-mediated transcription of chemokine RNA [2]: failed to modulate | effect on RANTES-induced KC reporter activity (murine KC promoter): did not inhibit

Molecule: N#CC(=C(/N)Sc1ccccc1N)/C(C#N)=C(\N)Sc1ccccc1N [U0126, reference compound]
effect on erk1/2 and RSK phosphorylation induced by H-89 [1]: blocked | effect on RANTES-induced RSK phosphorylation ([1]; varying concentrations before 100 ng/ml RANTES, 20 min): block RSK phosphorylation in a dose dependent fashion | effect on H-89 induced chemokine/cytokine transcription [2]: inhibited; also recorded: blocked | effect on RANTES-induced chemokine message [2]: blocked induction of chemokine transcripts | effect on background level of RANTES transcript [2]: failed to diminish | inhibition of RANTES-induced TNF-α and chemokine transcription [2]: partially inhibited; also recorded: completely inhibited | effect on RANTES-induced KC reporter activity (murine KC promoter): inhibit reporter activity | effect on PKA activity (PKA): neither U0126 nor Raf-1 inhibitor decreased PKA activity

effects on KC and MIP-2 transcription ([2]; 500 μM, peaking at 2 h): weak and transient
Molecule: CCCC(=O)Nc1ncnc2c1ncn2[C@@H]1O[C@@H]2COP(=O)(O)O[C@H]2[C@H]1OC(=O)CCC [db-cAMP, dibutyryl cAMP, reference compound]
effect of cAMP analogue alone on transcription ([2]; 500 μM, no RANTES): Neither cAMP analogue alone had any effect | effect on astrocyte PKA activity (PKA; 1 μM forskolin, 500 μM db-cAMP or 500 μM 8-bromo-cAMP, 1 h): activated

Molecule: C=C[C@@]1(C)CC(=O)[C@]2(O)[C@@]3(C)[C@@H](O)CCC(C)(C)[C@@H]3[C@H](O)[C@H](OC(C)=O)[C@@]2(C)O1 [forskolin, reference compound]
increase of intracellular cAMP levels [3]: about 4 fold

modulation of expression of any of the receptor transcripts examined [4]: did not significantly modulate | expression of TNF-α, RANTES, KC, MIP-1α, MIP-2, and MCP-1 transcripts [2]: no effect
Molecule: MCP-1: recombinant mouse CC-chemokine, purchased from BD-PharMingen

expression of transcripts for MIP-1α [2]: induced
Molecule: PKI: protein kinase A inhibitor 14-22 amide (SGRTGRRNA-NH2; UniProt P61925 14-22, looked up, fragment) [reference compound]

expression of TNF-α, RANTES, KC, MIP-1α, MIP-2, and MCP-1 transcripts [2]: no effect
Molecule: SDF-1α

CX3CR1 and CXCR4 expression [4]: reduced | change in CCR5 transcripts [4]: little or no change | increase of CCR1 transcripts [4]: 55%
Molecule: TNF-α

expression of TNF-α, RANTES, KC, MIP-1α, MIP-2, and MCP-1 transcripts [2]: up-regulated
B1: MIP-1α: recombinant mouse CC-chemokine, purchased from R&D System (protein, UniProt P10855 24-92, looked up)
C-C motif chemokine 3: APYGADTPTACCFSYSRKIPRQFIVDYFETSSLCSQPGVIFLTKRNRQICADSKETWVQEYITDLELNA

B2: IL-1: recombinant murine IL-1β, purchased from Invitrogen (protein, UniProt P10749 118-269, looked up)
Interleukin-1 beta: VPIRQLHYRLRDEQQKSLVLSDPYELKALHLNGQNINQQVIFSMSFVQGEPSNDKIPVALGLKGKNLYLSCVMKDGTPTLQLESVDPKQYPKKKMEKRFVFNKIEVKSKVEFESAEFPNWYISTSQAEHKPVFLGNNSGQDIIDFTMESVSS
activation of the three MAP kinases (ERK1/2, SAPK/JNK, p38) ([1]; 20 ng/ml IL-1β, 20 min): activated

expression of TNF-α, RANTES, KC, MIP-1α, MIP-2, and MCP-1 transcripts [2]: up-regulated
B3: MIP-1β: recombinant mouse CC-chemokine, purchased from R&D System (protein, UniProt P14097 24-92, looked up)
C-C motif chemokine 4: APMGSDPPTSCCFSYTSRQLHRSFVMDYYETSSLCSKPAVVFLTKRGRQICANPSEPWVTEYMSDLELN
